Read-outs that look alike come from different tables or passages of the source.
Legend:
[1] = system: resistant house fly, INSEL strain; test: Synergistic activity on resistant house fly, INSEL strain; format: in vivo, Musca domestica
Description: (§1) Investigation of Synergistic Activity on Resistant House Fly (Musca domestica) Populations
(§2) Investigation was carried out as described in biological Example 1. LD50 values and synergist ratios were determined as given in Example 2.

[2] = system: resistant house fly, IX strain; test: Synergistic activity on resistant house fly, IX strain; format: in vivo, Musca domestica
Description: as §1, §2

[3] = system: two-spotted spider mite (Tetranychus urticae); test: Synergism of acaricidal effect on two-spotted spider mite (leaf-disc dip); format: in vivo
Description: Synergism of Acaricidal Effect Investigated on Two-spotted Spider Mite (Tetranychus urticae)
(§3) From the first pair of leaves of a 1 week old bean plant leaf-discs of […] diameter were cut which were treated by dipping them (5 min) into the test solution consisting of the active ingredient and the synergist in definite concentrations. For the preparation of the stock solutions of required concentration, 10% acetone as co-solvent and 0.1% Tween-80 as detergent were applied. The dried leaf-discs were placed on wet surface and they were infected with […]-up female mites per leaf. After 48 hours the mortality was recorded using microscope and a brush. The experiment was performed in 4 replica.

[4] = system: pea aphid (Acyrthosiphon pisun); test: Synergist activity against pea aphid, field trial; format: in vivo; details: two days after treatment
Description: Synergist Activity Against Pea Aphid (Acyrthosiphon pisun)
Synergist activity of compound No. 599 was tested against pea aphid (Acyrthosiphon pisun) in field trials on small plots (10 m^2). 300 l/ha spray volume was applied using motoric sprayer (Maruyama). Efficacy was expressed by the average number of aphids/leaf before, and two days after the treatment, respectively. (Henderson and Tilton: J. Econ. Entomol., 48:157, 1955).

[5] = system: two-spotted spider mite (Tetranychus urticae); test: Synergist activity of compound 599 against two-spotted spider mite; format: in vivo; details: 24 h
Description: as §3, with “After 48 hours the mortality was recorded using microscope and a brush.” left out
Synergist activity of compound 599 with various specific acaricides was investigated against two-spotted spider mite (Tetranychus urticae), by the method described in Example 8.

[6] = system: house fly (Musca domestica); test: Synergist spectrum on house fly, topical; format: in vivo
Description: (§4) Investigation of Synergist Spectrum on House Fly (Musca domestica) and Cotton Bollworm (Helicoverpa armigera) Following Topical Administration
(§5) Synerzistic activities of materials No. 279 and 599 of the present invention for various active ingredients were determined on house fly (Musca domestica) and cotton bollworm (Helicoverpa armigera) using methods of treatments as described in biological Examples 1 and 2. For the active ingredients ISO common names are given (see: Pesticide Manual 1994).

[7] = system: cotton bollworm (Helicoverpa armigera); test: Synergist spectrum on cotton bollworm, topical; format: in vivo
Description: as §4, §5

flies = test: Comparative investigations with known reference synergists on flies treated with carbofuran; format: in vivo; details: flies treated with carbofuran and 1000 ng of the synergist
Description: These SR50 ratios were compared to those of the new compounds prepared by us.

[8] = system: house fly (Musca domestica); details: in vivo, topical_or_ocular, 1440 min
Description: Investigation of Synergistic Activity on House Fly (Musca domestica) Following Topical Application
In two parallel experiments 10 female. 2-4 day old house flies were treated on the vental side of their thorax with 0.2 μl of the test solution, with the help of Hamilton MicroLab P microdispenser. Beside fixed synergist dose of 1000 ng/fly the animals were treated with carbofuran at a dose of 20 ng/fly. For solvent cellosolve was used. Selection and counting of the flies were performed under the action of CO2. After treatment the flies were kept in plastic cups covered with tulle. Mortality after 24 hours was expressed in %.

[9] = system: cotton bollworm (Helicoverpa armigera); test: Synergistic activity on cotton bollworm following topical application; details: in vivo
Description: Investigation of Synergistic Activity on Cotton Bollworm (Helicoverpa armigera) Following Topical Application
Treatment was performed similarity as described in Example 1. but L2 stadium grubs of cotton bollworms (Helicoverpa armigera) were treated as test animals. From the 24 hour dose--mortality data the LD50 (ng/grub) values were determined using probit analysis. None of the synergists acted at the applied 1000 ng/grub dose. Synergist ratio was calculated as the quotient of the LD50 values of carbofuran administered alone, and with the synergist. The experiments were performed in 2-4 replica.

[10] = system: house fly (Musca domestica); test: Effect on fecundity, on house fly; format: in vivo; details: 500 ppm in granulated sugar, 48 hours feeding; eggs of next 10 days
Description: Investigation of the Effect on Fecundity, on House Fly (Musca domestica)
Groups consisting of freshly hatched 50 male and 50 female flies were fed during 48 hours with granulated sugar comprising 500 ppm of material No. 441 and 484 of the present invention respectively, and the eggs layed on the next 10 days were raised. The fecundity-hindering effect was expressed as the quotient of the emerged flies in the treated and untreated groups. The experiments were performed in 4 replica.

[11] = system: house fly (Musca domestica); test: Effect of the active ingredient:synergist ratio on the synergistic activity (flies)
Description: Effect of the Active Ingredient:Synergist Ratio on the Synergistic Activity
Treatment was performed as described in Example 1. using Hamilton MicroLab P microdispenser. In two parallel experiments 10 female -3 day old flies were treated on the ventral side of their thorax with 0.2 μl test solution. Beside 1000-400-200-80 ng/fly fixed doses of the synergist they were treated with constant 20 ng/fly CARBOFURAN®. Selection and counting of the flies were performed under the action of CO2. After treatment the flies were kept in plastic cups covered with tulle. After 24 hours mortality % was recorded. Depending on the results the experiments were performed in 2-4 replica.

[12] = alone, 31 ppm, 48 hours, read-out: Mortality %
[13] = alone, 62 ppm, 48 hours, read-out: Mortality %
[14] = alone, 125 ppm, 48 hours, read-out: Mortality %
[15] = carbofuran 20 ng/fly + synergist 80 ng/fly
[16] = carbofuran 20 ng/fly + synergist 200 ng/fly
[17] = carbofuran 20 ng/fly + synergist 400 ng/fly
[18] = house fly, in vivo, topical_or_ocular

CNC(=O)O/N=C/C(C)(C)SC [ALDICARB, reference compound]
LD50 ([1]; active ingredient alone): 695 ng/fly
LD50 ([2]; active ingredient alone): 2104 ng/fly

CNC(=O)Oc1cccc2c1OC(C)(C)O2 [BENDIOCARB, reference compound]
LD50 ([1]; active ingredient alone): 100000 ng/fly
LD50 ([2]; active ingredient alone): 100000 ng/fly

CC(C)OC(=O)C(O)(c1ccc(Br)cc1)c1ccc(Br)cc1 [BROMOROPYLATE]
mortality at 31 ppm [3, 12]: 18%
mortality at 62 ppm [3, 13]: 28%
mortality at 125 ppm [3, 14]: 90%

CNC(=O)Oc1cccc2c1OC(C)(C)C2 [CARBOFURAN, reference compound]
E (%) ([4]; dose 110 act. ingr./ha): 98.0%
E (%) ([4]; dose 160 act. ingr./ha): 99.1%
LD50 ([1]; active ingredient alone): 15375 ng/fly
mortality at 31 ppm ([3]; 48 h): 13%
mortality at 62 ppm ([3]; 48 h): 39%
mortality at 125 ppm ([3]; 48 h): 44%
mortality at 250 ppm ([3]; 48 h): 81%
mortality at 500 ppm ([3]; 48 h): 90%
LC50 [5]: 164 µg/mL
LD50 ([2]; active ingredient alone): > 100000 ng/fly

CC#CCOCc1cccc2ccccc12 [Compound 279, 1-naphthyl-methyl 2-butynyl ether]
Synergist ratio ([6]; with AMINOCARB): > 20
Synergist ratio ([6]; with AZINPHOSMETHYL): > 5
Synergist ratio ([6]; with BENDIOCARB): > 20
Synergist ratio ([6]; with CARBOFURAN): > 20
Synergist ratio ([6]; with CHLORPYRIPHOS): > 5
Synergist ratio ([6]; with DIOXACARB): > 20
Synergist ratio ([6]; with ESBIOL): > 5
Synergist ratio ([6]; with FENOBUCARB): > 10
Synergist ratio ([6]; with IMIDACLOPRID): > 5
Synergist ratio ([6]; with ISOPROCARB): > 40
Synergist ratio ([6]; with LINDAN): > 5
Synergist ratio ([6]; with METHOMYL): > 10
Synergist ratio ([6]; with PIRIMICARB): > 20
Synergist ratio ([6]; with PROPOXUR): > 20
Synergist ratio ([6]; with THIODICARB): > 10
Synergist ratio ([7]; with AZINPHOSMETHYL): > 5
Synergist ratio ([7]; with BENDIOCARB): > 10
Synergist ratio ([7]; with CARBOFURAN): > 10
Synergist ratio ([7]; with CHLORPYRIPHOS): > 5
Synergist ratio ([7]; with LINDAN): > 5
Synergist ratio ([7]; with PROPOXUR): > 10
Synergist ratio SR50 (flies): 28.7
LD50 ([1]; ALDICARB + 279): 172 ng/fly
SR ([1]; ALDICARB + 279): 4
LD50 ([1]; BENDIOCARB + 279): 150 ng/fly
SR ([1]; BENDIOCARB + 279): 667
LD50 ([1]; CARBOFURAN + 279): 29 ng/fly
SR ([1]; CARBOFURAN + 279): 530
LD50 ([1]; ESBIOL + 279): 794 ng/fly
SR ([1]; ESBIOL + 279): 13
LD50 ([1]; ISOPROCARB + 279): 983 ng/fly
SR ([1]; ISOPROCARB + 279): 102
LD50 ([1]; METHOMYL + 279): 46 ng/fly
SR ([1]; METHOMYL + 279): 10
LD50 ([1]; PIRIMICARB + 279): 696 ng/fly
SR ([1]; PIRIMICARB + 279): 145
mortality % [8]: 72%
mortality at 31 ppm [3, 12]: 0%
mortality at 62 ppm [3, 13]: 6%
mortality at 125 ppm [3, 14]: 8%
mortality at 250 ppm ([3]; alone, 250 ppm, 48 hours, read-out: Mortality %): 18%
mortality at 500 ppm ([3]; alone, 500 ppm, 48 hours, read-out: Mortality %): 30%
LD50 ([2]; ALDICARB + 279): 507 ng/fly
SR ([2]; ALDICARB + 279): 4
LD50 ([2]; BENDIOCARB + 279): 746 ng/fly
SR ([2]; BENDIOCARB + 279): 134
LD50 ([2]; CARBOFURAN + 279): 94 ng/fly
SR ([2]; CARBOFURAN + 279): 4760
LD50 ([2]; ISOPROCARB + 279): 2145 ng/fly
SR ([2]; ISOPROCARB + 279): 47
LD50 ([2]; METHOMYL + 279): 109 ng/fly
SR ([2]; METHOMYL + 279): 5
LD50 ([2]; PIRIMICARB + 279): 3562 ng/fly
SR ([2]; PIRIMICARB + 279): 115
Synergist ratio [9]: > 5

CC#CCOC(c1ccc2c(c1)OCO2)C(C)C (stereo not drawn) [Compound 484, 5-[2-Methyl-1-(2-butynyloxy)-propyl]-1,3-benzodioxole]
mortality % [8]: 63%
Synergist ratio [9]: > 5
Hindering effect on fecundity [10]: 90%

CC#CCOCc1c(Cl)cccc1Cl [Compound 503, 2,6-Dichloro-1-(2-butynyloxy-methyl)-benzene]
Synergist ratio SR50 (flies): 21.16
24 hour mortality (%) [11, 15]: 37%
24 hour mortality (%) [11, 16]: 50%
24 hour mortality (%) [11, 17]: 65%
24 hour mortality (%) [11, 18]: 93%
mortality % [8]: 95%
Synergist ratio [9]: > 5

CC#CCOC(C)c1ccc(OC)c(OC)c1 (stereo not drawn) [Compound 599]
Synergist ratio ([6]; with AMINOCARB): > 20
Synergist ratio ([6]; with BENDIOCARB): > 40
Synergist ratio ([6]; with CARBOFURAN): > 20
Synergist ratio ([6]; with DIOXACARB): > 40
Synergist ratio ([6]; with ESBIOL): > 10
Synergist ratio ([6]; with FENOBUCARB): > 20
Synergist ratio ([6]; with IMIDACLOPRID): > 5
Synergist ratio ([6]; with ISOPROCARB): > 40
Synergist ratio ([6]; with METHOMYL): > 10
Synergist ratio ([6]; with PERMETHRIN): > 5
Synergist ratio ([6]; with PIRIMICARB): > 20
Synergist ratio ([6]; with PROPOXUR): > 40
Synergist ratio ([6]; with TETRAMETHRIN): > 5
Synergist ratio ([6]; with THIODICARB): > 10
Synergist ratio ([7]; with BENDIOCARB): > 20
Synergist ratio ([7]; with CARBOFURAN): > 20
Synergist ratio ([7]; with DIOXACARB): > 20
Synergist ratio ([7]; with ISOPROCARB): > 20
Synergist ratio ([7]; with PERMETHRIN): > 10
Synergist ratio ([7]; with PROPOXUR): > 20
24 hour mortality (%) [11, 15]: 65%
24 hour mortality (%) [11, 16]: 90%
24 hour mortality (%) [11, 17]: 95%
24 hour mortality (%) [11, 18]: 100%
mortality % [8]: 100%
Synergist ratio [9]: > 5
